Article PMC11859980, “Tailored Intranasal Albumin Caged Selegiline-α Synuclein siRNA Liposome with Improved Efficiency in Parkinson’s Model” (Pharmaceutics, 2025)
Read-outs that look alike come from different tables or passages of the source.

Key:
catalase = format: in vivo, rats
Method: (§1) PD was simulated in rats by IP injection of rotenone (3 mg/kg/day) for 11 days. […] On day 30 of the experiment, stride length was recorded based on the spatial distance a paw travels during a stride. Animal forepaws were dipped in black non-toxic ink. The length of forelimb and hindlimb steps in the left and right limbs were measured while walking on a clean piece of paper. Stride length was defined as the distance between each step on the same side of the animal’s body, measured from the mid-digit toe of the first step to the heel of the second.
(§2) On day 30 of the experiment, rats were scarified and brain tissues were collected. Brain tissues were homogenized as previously described and the concentration of dopamine in the brain homogenate was assessed by HPLC-equipped with a fluorescence detector set at excitation/emission wavelengths of 280/315 nm as described elsewhere. Catalase activity in brain homogenate was measured using colorimetric assay at 570 nm using hydrogen peroxide.

dopamine = format: in vivo, rats
Method: as §1, §2

MAO-B = format: in vivo, rats; conditions: rotenone 3 mg/kg/day IP 11 days; treatment days 12 and 20; day 30; ELISA
Parkinson's model rats [1] = assay: Stride length measurement, rotenone-induced PD rat model; format: in vivo; conditions: day 30
Method: as §1

Parkinson's model rats [2] = assay: Paw placement and coverage, rotenone-induced PD rat model; format: in vivo; conditions: day 30
Method: as §1
On day 30, the distance between the location of the behind paw and the previously placed contralateral front paw was measured during the same step cycle while the area covered when the forelimbs or hindlimbs perform a stride was recorded as the coverage area.

Parkinson's model rats [3] = assay: Open field test, rotenone-induced PD rat model; format: in vivo; conditions: 60-minute observation
Method: as §1
An open-field device with 16 sub-squares (40 × 40 × 30 cm; Accuscan Instruments, Columbus, OH, USA) was utilized to examine forelimb and hindlimb locomotor impairments in rats following 30 days of PD induction. Prior to the test, each rat was left in its home cage in the testing area for 2 h before being gently carried by the base of its tail to the center of the open field arena. The animal behavior was then studied for 60 min. To measure the rat’s ambulatory distance, the total number of squares crossed was recorded. Additionally, one of the non-motor characteristics of PD that has been investigated is anxiety, which is indexed by the preference exploration of the open field’s periphery. The number of individuals crossing the center zone was noted.

Parkinson's model rats [4] = assay: Catalepsy test (bar method), rotenone-induced PD rat model; format: in vivo; conditions: scale 0 to 5
Method: as §1
The catalepsy score was determined using the bar method, which involved measuring the time that rat consumed to remove its forepaws from the rod. The rats were rated on a five-point scale: 0 (0–5 s), 1 (6–15 s), 2 (16–25 s), 3 (26–35 s), 4 (36–60 s), and 5 (>60 s). The rat’s forepaws were gently put on a steel rod positioned 10 cm above the bench. The recording begins when cataleptic animals have been held in this position for at least 30 s (the adapting time).

[5] = In vivo pharmacokinetic study of Sel in plasma and brain; conditions: for AUC(0-t): AUC0–480min; for AUC(0-inf): AUC0–∞; for k el: Kel
Method: All animal experiments were conducted in compliance with the guidelines of the ethical committee, Faculty of Pharmacy, University of Sadat City (approval number RERC-FOP-USC-24-02-08). Adult male albino rats (200 g ± 10%) were randomly divided into two groups each of 48 animals. Animals were subjected to anesthesia using sodium thiopental via intraperitoneal injection (IP). […] At each time point, blood samples were collected from 6 animals by cardiac puncture on heparinized tube and then animals were sacrificed. Blood samples were centrifuged at 9000 rpm and the obtained plasma was stored at −80 °C until analysis. The whole brain was isolated, washed with saline, and homogenized at 10,000 rpm in ice-cold PBS (pH 7.4) for 5 min. The homogenate obtained was centrifuged at 9000 rpm for 15 min. Sel concentration in plasma and brain was quantified using LCMS/MS [49, 50]. The maximum drug concentration (Cmax), time required to achieve Cmax (Tmax), area under the concentration-time curve (AUC0–480min and AUC0–∞), mean residence time (MRT), and elimination rate constant (Kel) in both plasma and brain were calculated. All pharmacokinetics data were calculated using the pharmacokinetic software PK Solver-Add Ins for Microsoft Excel 2007. Additionally, absolute bioavailability as well as the Direct-Transport Percentage (DTP%) and Drug-Targeting Efficiency percentage (DTE%) were calculated using the following equations [51]:DTE = (AUCbrain/AUCplasma) IN/(AUCbrain/AUCplasma) IV × 100(2) DTP% = BIN − BX/BIN × 100(3) where BX = BIV/PIV × PIN
BX is the brain AUC0–480min fraction contributed by systemic circulation, following IN administration; BIV is the brain AUC0–480min following IV administration; PIV is the plasma AUC0–480min following IV administration; BIN is the brain AUC0–480min following IN administration; PIN is the plasma AUC0–480min following IN administration.

[6] = rotenone 3 mg/kg/day IP 11 days, treatment days 12 and 20, day 30, mean ± SE (n = 6)
[7] = male, albino, rat, in vivo, iv, 1 mg/kg
[8] = male, albino, rat, in vivo, iv, 1 mg/kg, brain, rat brain, Sel 1 mg/kg, route as in label
[9] = male, albino, rat, in vivo, iv, 1 mg/kg, plasma, rat plasma, Sel 1 mg/kg, route as in label

**Q.** Which “Catalase activity in brain tissue” value (catalase; [6]) does the source give for `C=C(C)[C@H]1Cc2c(ccc3c2O[C@@H]2COc4cc(OC)c(OC)cc4[C@@H]2C3=O)O1` [rotenone] here?
**A.** Its value is 12 ± 0.85 U/mg protein.

**Q.** And the “Dopamine concentration in brain tissue” value (dopamine; [6])?
**A.** The value was 49.66 ± 3.23 ng/g.

**Q.** And the “MAO-B level in brain tissue” value (MAO-B)?
**A.** The value was 256.33 ± 25.6 ng/g.

**Q.** What about the “Stride length, left forelimb” value (Parkinson's model rats [1]) of the same molecule?
**A.** Its value is 102 ± 4.2 mm.

**Q.** And the “Paw placement, left side” value (Parkinson's model rats [2])?
**A.** Its value is 24.66 ± 2.02 mm.

**Q.** What about the “Paw placement, right side” value (Parkinson's model rats [2]) of the same molecule?
**A.** The value was 30.33 ± 2.95 mm.

**Q.** And the “Number of center crossings” value (Parkinson's model rats [3])?
**A.** The value was 3.00 ± 1.91.

**Q.** What about the Catalepsy score (Parkinson's model rats [4]) of the same molecule?
**A.** Its Catalepsy score is 4.78 ± 0.17.

**Q.** For `C#CCN(C)[C@H](C)Cc1ccccc1` [IV Sel solution, Selegiline], which Tmax [5, 7] is on record?
**A.** The Tmax was 30 min.

**Q.** And the bioavailability [5, 7]?
**A.** The bioavailability was 100%.

**Q.** And the AUC(0-t) [5, 8]?
**A.** The AUC(0-t) was 850 ± 60 ng·h/mL.

**Q.** What about the AUC(0-t) [5, 9] of the same molecule?
**A.** Its AUC(0-t) is 1160 ± 90 ng·h/mL.

**Q.** What about the AUC(0-inf) [5, 8] of the same molecule?
**A.** The AUC(0-inf) was 1220 ± 150 ng·h/mL.

**Q.** What about the AUC(0-inf) [5, 9] of the same molecule?
**A.** Its AUC(0-inf) is 1540 ± 210 ng·h/mL.

**Q.** And the k el [5, 8]?
**A.** The k el was 4.44e-05 s⁻¹.

**Q.** What about the k el [5, 9] of the same molecule?
**A.** The k el was 4.72e-05 s⁻¹.

**Q.** And the MRT [5, 8]?
**A.** Its MRT is 4.56 ± 0.75 h.

**Q.** What about the MRT [5, 9] of the same molecule?
**A.** Its MRT is 4.22 ± 0.84 h.

**Q.** What about the “Cmax, brain” value ([5]; rat brain, Sel 1 mg/kg, route as in label) of the same molecule?
**A.** The value was 0.21 ± 0.03 µg/mL.

**Q.** And the “Catalase activity in brain tissue” value (catalase; rat, in vivo)?
**A.** The value was 24 ± 0.82 U/mg protein.

**Q.** And the “Dopamine concentration in brain tissue” value (dopamine; rat, in vivo)?
**A.** The value was 125.33 ± 3.71 ng/g.

**Q.** And the “Stride length, left forelimb” value (Parkinson's model rats [1])?
**A.** Its value is 119.5 ± 2.66 mm.

**Q.** And the “Paw placement, left side” value (Parkinson's model rats [2])?
**A.** The value was 12 ± 0.57 mm.

**Q.** What about the “Paw placement, right side” value (Parkinson's model rats [2]) of the same molecule?
**A.** The value was 11.66 ± 1.05 mm.

**Q.** What about the “Number of center crossings” value (Parkinson's model rats [3]) of the same molecule?
**A.** Its value is 8.33 ± 1.49.

**Q.** And the Catalepsy score (Parkinson's model rats [4])?
**A.** The Catalepsy score was 2.11 ± 0.11.
